Tests used:
experimental ICH = assay: hemorrhagic areas of brains of normoglycemic and hyperglycemic rats with experimental ICH treated with AZA; type: in vivo, Wistar rats
Description: (§1) In the hyperglycemia experiment, six Wistar rats are applied. Regarding each rat, hyperglycemia is induced by a single intraperitoneal injection of a buffer solution of streptozotocin (STZ) in 31 mM citrate and 39 mM sodium phosphate at 70 mg/kg body weight after an overnight fast. On the other hand, control rats receive an intraperitoneal injection of buffer vehicle. On day 3 after STZ treatment, whole blood of the rats is obtained and the glucose levels thereof are measured. Blood glucose level of ≥250 mg/dL was chosen as hyperglycemia, whereas rats were used as normoglycemia, defined as a blood glucose level of <100 mg/dL.
(§2) Then in the intracerebral hemorrhage experiment, each hyperglycemic or normoglycemic rat is anesthetized with an intraperitoneal injection of 50 mg/kg pentobarbital. Next, a needle is introduced through a burr hole into the striatum, and the needle is then removed, with the burr hole sealed with bone wax and the wound sutured. After a period of time, AZA is administered orally or by gastric lavage at 5 mg/kg in normal saline. Blood of the rats are sampled on days 1, 4, and 7 post-induction of ICH for testing the glucose level thereof.
Experiment 2: comparing the hemorrhagic areas of normoglycemic and hyperglycemic rats treated with AZA.

AQP4 = assay: expression of AQP4 in brain tissues of normoglycemic and hyperglycemic rats with experimental ICH, immunohistochemistry; type: in vivo, Wistar rats
Description: as §1, §2
Experiment 3: determining the expression of AQP4 in normoglycemic and hyperglycemic rats.
The differential expressions of AQP4 in normoglycemic and hyperglycemic rats are detected by AQP4 autoantibody by Immunohistochemistry. The effect of AZA influencing the expression of AQP4 are tested.

[1] = hyperglycemic rats treated with AZA, day 1
[2] = hyperglycemic rats treated with AZA, day 4
[3] = hyperglycemic rats treated with AZA, day 7
[4] = normoglycemic rats treated with AZA, day 1
[5] = normoglycemic rats treated with AZA, day 4
[6] = normoglycemic rats treated with AZA, day 7

`CC(=O)Nc1nnc(S(N)(=O)=O)s1` [AZA, acetazolamide] was tested, and the “hemorrhagic areas, change in words” value (experimental ICH; both normoglycemic and hyperglycemic rats treated with AZA) was “significant decrease”, the “hemorrhagic areas square measure of rats (%)” value (experimental ICH; [1]) was 2.08 ± 0.02% and the “hemorrhagic areas square measure of rats (%)” value (experimental ICH; [2]) was 0.91 ± 0.13%. The “hemorrhagic areas square measure of rats (%)” value (experimental ICH; [3]) was 0.38 ± 0.10%, the “hemorrhagic areas square measure of rats (%)” value (experimental ICH; [4]) was 6.00 ± 0.05% and the “hemorrhagic areas square measure of rats (%)” value (experimental ICH; [5]) was 2.61 ± 0.17%. For the same compound, the “hemorrhagic areas square measure of rats (%)” value (experimental ICH; [6]) was 1.37 ± 0.05%, the “AQP4 expression, change in words” value (AQP4; hyperglycemic rats administered with AZA (5 mg/kg)) was “significant decrease” and the “the expression of AQP4” value (AQP4; [1]) was 15.67 ± 6.59. For the same compound, the “the expression of AQP4” value (AQP4; [2]) was 8.65 ± 4.53%, the “the expression of AQP4” value (AQP4; [3]) was 2.33 ± 3.83 and the “the expression of AQP4” value (AQP4; [4]) was 12.19 ± 2.75. For the same compound, the “the expression of AQP4” value (AQP4; [5]) was 18.56 ± 5.67 ^ and the “the expression of AQP4” value (AQP4; [6]) was 37.84 ± 6.53.
